Source: patent US5510356A, “Bisquinolines and processes for their production and use to treat malaria” (priority 1991, dated 1996)
“Also recorded” adds a separate entry of the source.

Key:
[1] = system: P. falciparum clone D-6 (Sierra Leone); format: cell-based, Plasmodium falciparum; details: D-6 clone (resistant to mefloquine)
Method: (§1) In vitro activity against P. falciparum was determined using a modification of the semiautomated microdilution technique of Desjardins et al. (1979) and Milhous et al. (1985). Two P. falciparum malaria parasite clones, designated as Sierra Leone (D-6) and Indochina (W-2), are used in susceptibility testing. The former is resistant to mefloquine, and the latter to CQ, pyrimethamine, sulfadoxine, and quinine. Test compounds are dissolved in dimethylsulfoxide, and solutions serially diluted with culture media. Erythrocytes with 0.25 to 0.5% parasitemia are added to each well of a 96-well microdilution plate to give a final hematocrit of 1.5%. […] Results are reported as […] (ng/mL) values. For a complete description of this assay, see Milhous et al. (1985) and Lin et al. (1987).

[2] = system: P. falciparum clone W-2 (Indochina); format: cell-based, Plasmodium falciparum
Method: as §1

[3] = system: P. falciparum; experiment: In vitro activity against P. falciparum (both clones, D-6 and W-2); format: cell-based, Plasmodium falciparum; details: for Resistance Index: IC50 (W2)/IC50 (D6) ratio; for IC50: Plasmodium falciparum, clone not specified; for antimalarial activity (in words): general statement, refers to Table I
Method: as §1

[4] = system: P. berghei (strain KBG 173); experiment: In vivo activity against P. berghei in mice, single subcutaneous dose 3 days after infection; parameters: species or system Plasmodium berghei; mice
Method: In vivo activity against P. berghei was obtained against a drug-sensitive strain of P. berghei (strain KBG 173) (Osdene et al., 1967). Each test compound is administered subcutaneous to five male mice per dilution in a single subcutaneous dose 3 days after infection. Results are expressed in T-C values which indicate the mean survival time of the treated mice beyond that of the control animals; untreated mice survive on average 6.2 days. Compounds are classified as active (A) when the mean survival time of the treated mice is twice that of the controls (>6.2 days), and curative (C) when one or more test animals live 60 days post-infection. Deaths from 0-2 days post-treatment are attributed to toxicity (T).

[5] = system: P. berghei; details: cited from earlier work
[6] = system: CQ-resistant malaria; details: cited from earlier work; for activity against malaria / CQ-resistant malaria (in words): literature; for duration of action / toxicity: compared to CQ, Li et al., 1981a, Lin et al., 1982
[7] = 40 mg/kg s.c., single dose 3 days post infection, n = 5
[8] = 160 mg/kg s.c., single dose 3 days post infection, n = 5
[9] = 640 mg/kg s.c., single dose 3 days post infection, n = 5

Row | Molecule | P. falciparum IC50 (nM) D-6 [1] | P. falciparum IC50 (nM) W-2 [2] | Resistance Index [3] | IC50 [3] | in vivo activity against P. berghei (in words) [4] | P. berghei T-C [4, 7] | activity against malaria / CQ-resistant malaria (in words) [6] | P. berghei T-C [4, 8] | also measured
1 | Clc1ccc2c(N[C@@H]3CCCC[C@H]3Nc3ccnc4cc(Cl)ccc34)ccnc2c1 (relative stereo) [Compound 3, ±-trans-N^1,N^2 -Bis (7-chloroquinolin-4-Yl) cyclohexane-1,2-diamine] | 1.0 nM | 1.4 nM | 1.4 | < 6 nM | either active or curative | 8.5 days | – | – | in vitro activity against P. falciparum (in words) [3]: most potent bisquinoline in vitro; antimalarial activity (in words) [3]: exceptional activity; mice cured ([4]; 160 mg/kg): 4/5; mice cured ([4]; 320 mg/kg): 5/5
2 | Clc1ccc2c(NN3CCN(Nc4ccnc5cc(Cl)ccc45)CC3)ccnc2c1 [1,4-bis(7-chloro-4-quinolylamino)piperazine] | – | – | – | – | – | – | active against malaria | – | activity against P. berghei in mice, compared with CQ ([5]; mice, Singh et al., 1971): significantly more effective than is CQ against P. berghei in mice
3 | CCN(CC)CCCC(C)Nc1ccnc2cc(Cl)ccc12 (stereo not shown) [CQ, chloroquine, reference compound] | – | – | 11.2 | – | – | – | – | – | P. berghei T-C ([4]; CQ, 40 mg/kg s.c., average of ten best data sets from WRAIR): 8.7 days
4 | CC(CNc1ccnc2cc(Cl)ccc12)Nc1ccnc2cc(Cl)ccc12 (stereo not shown) [Compound 2, N1,N2 -Bis(7-chloroquinolin-4-yl)propane1,2-diamine] | 3.5 nM | 3.9 nM | 1.1 | < 6 nM | either active or curative | 3.4 days | – | 5.7 days | antimalarial activity (in words) [3]: improved activity
5 | Clc1ccc2c(NCCCNc3ccnc4cc(Cl)ccc34)ccnc2c1 [Compound 4, N^1,N^3 -Bis(7-chloroquinolin-4-yl)propane1,3-diamine] | 15.1 nM | 82.9 nM | 5.5 | – | without activity in vivo; also recorded: inactive in both screens | 0.2 days | – | 0.4 days | in vitro activity against P. falciparum (in words) [3]: approximately an order of magnitude less potent in vitro; also recorded: inactive in both screens; P. berghei T-C [4, 9]: 1.2 days
6 | Clc1ccc2c(NCCCCNc3ccnc4cc(Cl)ccc34)ccnc2c1 [Compound 5, N1,N4 -Bis(7-chloroquinolin-4-yl)butane-1,4-diamine] | 387 nM | 80.9 nM | 0.2 | – | without activity in vivo; also recorded: inactive in both screens | 0.5 days | – | 2.3 days | in vitro activity against P. falciparum (in words) [3]: approximately an order of magnitude less potent in vitro; also recorded: inactive in both screens; P. berghei T-C [4, 9]: 5.6 days
7 | Clc1ccc2c(NCCCCCNc3ccnc4cc(Cl)ccc34)ccnc2c1 [Compound 6, N^1, N^5 -Bis(7-chloroquinolin-4-yl)pentane-1,5-diamine] | 2.5 nM | 3.8 nM | 1.5 | < 6 nM | either active or curative | 1.0 days | – | 5.1 days | –
8 | CC(CCCNc1ccnc2cc(Cl)ccc12)CNc1ccnc2cc(Cl)ccc12 (stereo not shown) [Compound 7, N^1, N^5 -Bis(7-chloroquinolin-4-yl)-2-methylpentane-1,5-diamine] | 2.7 nM | 3.0 nM | 1.1 | < 6 nM | either active or curative | 1.2 days | – | 3.6 days | antimalarial activity (in words) [3]: improved activity
9 | Clc1ccc2c(NCCCCCCNc3ccnc4cc(Cl)ccc34)ccnc2c1 [Compound 8, N^1, N^6 -Bis(7-chloroquinolin-4-yl)hexane-1,6-diamine] | 21.1 nM | 23.4 nM | 1.1 | – | – | 0.4 days | – | 3.9 days | –
10 | Clc1ccc2c(NCCCCCCCNc3ccnc4cc(Cl)ccc34)ccnc2c1 [Compound 9, N^1, N^7 -Bis(7-chloroquinolin-4-Yl)heptane-1,7-diamine] | 1.9 nM | 4.3 nM | 2.3 | < 6 nM | – | 2.6 days | – | 7.2 days | –
11 | Clc1ccc2c(NCCCCCCCCNc3ccnc4cc(Cl)ccc34)ccnc2c1 [Compound 10, N^1, N^8 -Bis(7-chloroquinolin-4-yl)octane-1,8diamine] | 5.6 nM | 3.1 nM | 0.6 | < 6 nM | – | -0.2 days | – | 1.0 days | –
12 | Clc1ccc2c(NCCCCCCCCCNc3ccnc4cc(Cl)ccc34)ccnc2c1 [Compound 11, N^1, N^9 -Bis(7-chloroquinolin-4-yl)nonane-1,9-diamine] | 3.0 nM | 2.3 nM | 0.8 | < 6 nM | – | 3.1 days | – | 7.4 days | P. berghei activity class (A = active, C = curative, with number of mice) ([4]; 640 mg/kg s.c., single dose, n = 5): A (active (A) when the mean survival time of the treated mice is twice that of the controls (>6.2 days))
13 | Clc1ccc2c(NCCCCCCCCCCNc3ccnc4cc(Cl)ccc34)ccnc2c1 [Compound 12, N^1, N^10 -Bis(7-chloroquinolin-4-yl)decane-l,10-diamine] | 5.7 nM | 3.4 nM | 0.6 | – | – | 0.2 days | – | 0.2 days | P. berghei T-C [4, 9]: 0.6 days
14 | Clc1ccc2c(NCCCCCCCCCCCCNc3ccnc4cc(Cl)ccc34)ccnc2c1 [Compound 13, N^1 N^12 -Bis(7-chloroquinolin-4-yl)dodecane-1,12-diamine] | 59.7 nM | 30.8 nM | 0.5 | – | without activity in vivo; also recorded: inactive in both screens | 0.0 days | – | -0.2 days | in vitro activity against P. falciparum (in words) [3]: approximately an order of magnitude less potent in vitro; also recorded: inactive in both screens; P. berghei T-C [4, 9]: 0.0 days
15 | Clc1ccc2c(N3CCN(CCCN4CCN(c5ccnc6cc(Cl)ccc56)CC4)CC3)ccnc2c1 [PQ, piperaquine] | 8.3 nM | 16.1 nM | 1.9 | – | – | – | active against malaria; also recorded: very effective against CQ-resistant malaria in China | – | duration of action [6]: longer duration of action; toxicity [6]: less toxicity when compared to CQ
16 | CCN(CC)Cc1cc(Nc2ccnc3cc(Cl)ccc23)ccc1O [amodiaquine] | – | – | – | – | – | – | active to various extents against CQ-resistant malaria | – | –
17 | OC(CN1CCN(c2ccnc3cc(Cl)ccc23)CC1)CN1CCN(c2ccnc3cc(Cl)ccc23)CC1 [hydroxypiperaquine] | – | – | – | – | – | – | active against malaria; also recorded: very effective against CQ-resistant malaria in China | – | duration of action [6]: longer duration of action; toxicity [6]: less toxicity when compared to CQ
18 | OC(c1cc(C(F)(F)F)nc2c(C(F)(F)F)cccc12)C1CCCCN1 (stereo not shown) [mefloquine] | – | – | – | – | – | – | active to various extents against CQ-resistant malaria | – | –
19 | C=C[C@H]1C[N@@]2CC[C@H]1C[C@H]2[C@H](O)c1ccnc2ccc(OC)cc12 [quinine] | – | – | – | – | – | – | active to various extents against CQ-resistant malaria | – | –
20 | CCN(CC)Cc1cc(Nc2ccnc3cc(Cl)ccc23)ccc1OC(=O)CCC(=O)Oc1ccc(Nc2ccnc3cc(Cl)ccc23)cc1CN(CC)CC [succinic acid diester of amodiaquine] | – | – | – | – | – | – | inactive against malaria | – | –
21 | dichloroquinazine | – | – | – | – | – | – | active against CQ-resistant falciparum malaria | – | resistance of P. berghei ([5]; CQ-resistant strain of P. berghei, Warhurst, 1966): Resistance to dichloroquinazine, however, is noted for a CQ-resistant strain of P. berghei
